Experimental data taken from ChEMBL document CHEMBL1201862, “PubChem BioAssay data set” (2004).
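Results reflect a 48-hour exposure of cells in 96-well plates to compound at five concentrations. GI50 marks 50% less growth.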 Active and inactive are the calls of the source. No stated cut-off is given here; in the data, active = GI50 up to about 1.1 µM and inactive = higher.

Legend:
Assay in all cases: DTP human tumour cell line panel, 48 h
EKVX = system: EKVX
HCC 2998 = system: HCC 2998
HCT-116 = system: HCT-116
HCT-15 = system: HCT-15
HOP-92 = system: HOP-92
IGROV-1 = system: IGROV-1
KM12 = system: KM12
MCF7 = system: MCF7
MDA-MB-435 = system: MDA-MB-435
MOLT-4 = system: MOLT-4
NCI-H226 = system: NCI-H226
NCI-H23 = system: NCI-H23
NCI-H522 = system: NCI-H522
NCI/ADR-RES = system: NCI/ADR-RES
OVCAR-3 = system: OVCAR-3
SK-OV-3 = system: SK-OV-3
SNB-75 = system: SNB-75
SR = system: SR
UACC-257 = system: UACC-257
UACC-62 = system: UACC-62

Structure (SMILES) | GI50 (EKVX) | GI50 (HCC 2998) | GI50 (HCT-116) | GI50 (HCT-15) [µM] | GI50 (HOP-92) | GI50 (IGROV-1) | GI50 (KM12) | GI50 (MCF7) | GI50 (MDA-MB-435) | GI50 (MOLT-4) | GI50 (NCI-H226) | GI50 (NCI-H23) | GI50 (NCI-H522) | GI50 (NCI/ADR-RES) | GI50 (OVCAR-3) | GI50 (SK-OV-3) | GI50 (SNB-75) | GI50 (SR) | GI50 (UACC-257) | GI50 (UACC-62)
O=C1c2cccnc2-c2nccc3c2c1nc1cc(Br)ccc13 | 1.15 µM (inactive) | 0.406 µM (active) | 0.025 µM (active) | 0.0721 | 0.438 µM (active) | 0.14 µM (active) | 0.147 µM (active) | < 0.0366 µM (active) | 0.198 µM (active) | 0.0955 µM (active) | 0.216 µM (active) | 0.0955 µM (active) | 0.115 µM (active) | 0.0375 µM (active) | 0.124 µM (active) | 0.239 µM (active) | 0.243 µM (active) | 0.0221 µM (active) | 0.226 µM (active) | 0.178 µM (active)
CC(=O)Nc1ccc(-c2nc3ccccc3s2)cc1I | 7.87 µM (inactive) | 0.488 µM (active) | 1.16 µM (inactive) | > 83.4 | 26.4 µM (inactive) | 0.0184 µM (active) | 54 µM (inactive) | 0.0463 µM (active) | > 94.8 µM (inactive) | > 100 µM (inactive) | 7.96 µM (inactive) | 18 µM (inactive) | 42.2 µM (inactive) | 42.3 µM (inactive) | 11.7 µM (inactive) | 18.3 µM (inactive) | 24.2 µM (inactive) | > 100 µM (inactive) | > 100 µM (inactive) | 22.6 µM (inactive)
COc1cccc(Nc2n[nH]c(NS(=O)(=O)c3cc(C)c(Cl)cc3S)n2)c1 | > 100 µM (inactive) | > 100 µM (inactive) | > 100 µM (inactive) | > 100 | > 100 µM (inactive) | > 100 µM (inactive) | > 100 µM (inactive) | > 100 µM (inactive) | > 100 µM (inactive) | > 100 µM (inactive) | > 100 µM (inactive) | > 100 µM (inactive) | > 100 µM (inactive) | > 100 µM (inactive) | > 100 µM (inactive) | > 100 µM (inactive) | > 100 µM (inactive) | > 100 µM (inactive) | > 100 µM (inactive) | > 100 µM (inactive)
COc1cc(C(=O)O)c([N+](=O)[O-])c(OC)c1OC | > 100 µM (inactive) | > 100 µM (inactive) | > 100 µM (inactive) | > 100 | > 100 µM (inactive) | > 100 µM (inactive) | > 100 µM (inactive) | > 100 µM (inactive) | > 100 µM (inactive) | > 100 µM (inactive) | > 100 µM (inactive) | > 100 µM (inactive) | > 100 µM (inactive) | > 100 µM (inactive) | > 100 µM (inactive) | > 100 µM (inactive) | > 100 µM (inactive) | > 100 µM (inactive) | > 100 µM (inactive) | > 100 µM (inactive)
O=C1C(CO)=C(CO)C(=O)c2c(O)ccc(O)c21 | 2.25 µM (inactive) | 2.06 µM (inactive) | 0.218 µM (active) | 0.214 | 0.261 µM (active) | 1.68 µM (inactive) | 1.61 µM (inactive) | 0.118 µM (active) | 0.472 µM (active) | 0.0497 µM (active) | 2.15 µM (inactive) | 0.389 µM (active) | 0.0897 µM (active) | 1.04 µM (active) | 0.655 µM (active) | 7.23 µM (inactive) | 0.388 µM (active) | 0.0902 µM (active) | 0.349 µM (active) | 0.782 µM (active)
COc1ccc(N2C(=O)C3c4[nH]c5ccc(OCc6ccccc6)cc5c4C4CCC(C(C)C)CC4C3C2=O)cc1 (stereo not given) | 11 µM (inactive) | > 100 µM (inactive) | > 45.8 µM (inactive) | > 100 | 32.1 µM (inactive) | > 39.6 µM (inactive) | > 100 µM (inactive) | 99.1 µM (inactive) | > 100 µM (inactive) | 18.2 µM (inactive) | 14.2 µM (inactive) | 17.4 µM (inactive) | 12.3 µM (inactive) | 30.2 µM (inactive) | > 58.5 µM (inactive) | 17.7 µM (inactive) | 2.23 µM (inactive) | 4.41 µM (inactive) | > 100 µM (inactive) | 29 µM (inactive)
COCc1nc(N)nc(N2N=C(C)CC2(C)C)n1 | > 100 µM (inactive) | > 100 µM (inactive) | > 100 µM (inactive) | > 100 | > 100 µM (inactive) | > 100 µM (inactive) | > 100 µM (inactive) | > 100 µM (inactive) | > 100 µM (inactive) | > 100 µM (inactive) | > 100 µM (inactive) | > 100 µM (inactive) | > 100 µM (inactive) | > 100 µM (inactive) | > 100 µM (inactive) | > 100 µM (inactive) | > 100 µM (inactive) | > 100 µM (inactive) | > 100 µM (inactive) | > 100 µM (inactive)
CC(=O)/C(=C(/Br)I)c1ccccc1 | 12.6 µM (inactive) | 6.81 µM (inactive) | 4.52 µM (inactive) | 4.32 | 10.5 µM (inactive) | 10.9 µM (inactive) | 14.8 µM (inactive) | 6.47 µM (inactive) | 3.01 µM (inactive) | 1.73 µM (inactive) | 7.45 µM (inactive) | 4.13 µM (inactive) | 0.442 µM (active) | 9.35 µM (inactive) | 6.49 µM (inactive) | 28.6 µM (inactive) | 14.2 µM (inactive) | 1.94 µM (inactive) | 12.6 µM (inactive) | 12.8 µM (inactive)
C=C(CCC(C(=O)O)C1CCC2(C)C3=C(CCC12C)C1(C)CCC(O)C(C)(C)C1CC3)C(C)C (stereo not given) | 27.5 µM (inactive) | 81.7 µM (inactive) | 28.6 µM (inactive) | 21.8 | 60.8 µM (inactive) | 22.3 µM (inactive) | 6.38 µM (inactive) | 60.7 µM (inactive) | > 100 µM (inactive) | 26.9 µM (inactive) | 30.2 µM (inactive) | 29.6 µM (inactive) | 16.6 µM (inactive) | 19.3 µM (inactive) | 45.6 µM (inactive) | > 100 µM (inactive) | 58.9 µM (inactive) | 12.1 µM (inactive) | 97.5 µM (inactive) | 34.9 µM (inactive)
COC1CC(NC(=O)C(F)(F)F)C(OC(C)=O)C(C)O1 (stereo not given) | > 100 µM (inactive) | > 100 µM (inactive) | > 100 µM (inactive) | > 100 | 72.1 µM (inactive) | > 100 µM (inactive) | > 100 µM (inactive) | > 100 µM (inactive) | > 100 µM (inactive) | > 100 µM (inactive) | 66.5 µM (inactive) | > 100 µM (inactive) | > 100 µM (inactive) | > 100 µM (inactive) | > 100 µM (inactive) | > 100 µM (inactive) | > 100 µM (inactive) | > 100 µM (inactive) | > 100 µM (inactive) | > 100 µM (inactive)
C=C1[C@@H](O)C[C@@]23CC[C@@H]4[C@@]5(C)CC[C@@H](OC(C)=O)C(C)(C)[C@@H]5C[C@@H](OC5OC(COC(C)=O)C(O)C(O)C5O)[C@@]4(C)C2=CC[C@H]3[C@H]1C (stereo not given in full) | 10.2 µM (inactive) | 1.75 µM (inactive) | 3.43 µM (inactive) | 12.4 | 7.38 µM (inactive) | 3.8 µM (inactive) | 2.1 µM (inactive) | 2.14 µM (inactive) | 4.51 µM (inactive) | 2.5 µM (inactive) | 4.43 µM (inactive) | 10.7 µM (inactive) | 5.35 µM (inactive) | 17.5 µM (inactive) | 3.72 µM (inactive) | 13.1 µM (inactive) | 3.96 µM (inactive) | 2.33 µM (inactive) | 11.6 µM (inactive) | 6.07 µM (inactive)
Cc1cn(C2CC(N/C(=N/C#N)NCC3OC(n4cnc5c(N)ncnc54)CC3O)C(CO)O2)c(=O)[nH]c1=O (stereo not given) | > 100 µM (inactive) | > 100 µM (inactive) | > 100 µM (inactive) | > 100 | > 100 µM (inactive) | > 100 µM (inactive) | > 100 µM (inactive) | 1.04 µM (active) | > 100 µM (inactive) | > 100 µM (inactive) | > 100 µM (inactive) | > 100 µM (inactive) | > 100 µM (inactive) | > 100 µM (inactive) | > 100 µM (inactive) | > 100 µM (inactive) | > 100 µM (inactive) | > 100 µM (inactive) | > 100 µM (inactive) | > 100 µM (inactive)
O=C(CSc1nc2ccc(I)cc2c(=O)n1Cc1ccccc1)NN1C(=O)CCC1=O | 34.1 µM (inactive) | 77.4 µM (inactive) | 43.3 µM (inactive) | 22.5 | 25.5 µM (inactive) | 29.9 µM (inactive) | 37.2 µM (inactive) | 41.5 µM (inactive) | 64.1 µM (inactive) | 42.1 µM (inactive) | 27.3 µM (inactive) | 17.6 µM (inactive) | 20.4 µM (inactive) | 37.2 µM (inactive) | 23.5 µM (inactive) | 52 µM (inactive) | 36.3 µM (inactive) | 31.9 µM (inactive) | 45 µM (inactive) | 55.7 µM (inactive)
CCOC1NC(=O)Oc2cc3ccccc3cc21 (stereo not given) | > 100 µM (inactive) | > 100 µM (inactive) | 35 µM (inactive) | 34.4 | 29.6 µM (inactive) | > 100 µM (inactive) | > 100 µM (inactive) | 35.6 µM (inactive) | > 100 µM (inactive) | 34.8 µM (inactive) | > 100 µM (inactive) | > 100 µM (inactive) | > 100 µM (inactive) | 99.5 µM (inactive) | 30.2 µM (inactive) | > 100 µM (inactive) | 60.5 µM (inactive) | 48.5 µM (inactive) | > 100 µM (inactive) | 42.6 µM (inactive)
